{"source": "patent US7223728B2", "about": "“Synergistic use of thiazolidinediones with glucagon-like peptide-1 and agonists thereof to treat metabolic instability associated with non-insulin dependent diabetes” (Eli Lilly and Company, priority 1999, dated 2007)", "system": "Zucker Diabetic Fatty (ZDF) rats", "assay": "Seven-week co-administration study of TZD 300512 and IP^7-GLP-1 (7–37)OH in diabetic rats (heart weight, blood glucose, insulin)", "format": "in vivo, rat", "source_text": "This study was designed to evaluate the effects of using a combination of sub-optimal doses of a TZD and a GLP-1 agonist on glucose metabolism and in addition, if this combination therapy would prevent occurrence of heart hypertrophy that is associated with optimal doses of TZD derivatives. Eight week old Zucker Diabetic Fatty (Genetic Models, Inc.) rats (ZDF) weighing about 350 grams were used in this study. Animals were allowed free access to water, and Purina Formulab 5008 chow. TZD 300512 was administered as 0.00006% diet admixture while IP^7-GLP-1 (7–37)OH, a GLP-1 agonist, was infused subcutaneously at a constant rate of 0.06 ug/min via implant Aztet pumps. The duration of study was seven weeks, and food consumption and body weight were monitored daily. Plasma glucose and insulin levels were measured weekly, and Glycated hemoglobin A1c was measured at the end of the study. Heart weights also were measured at the end of the study.\nTable 1 summarizes final rat weight, daily food intake, plasma glucose levels, plasma insulin levels, Hbalc, and heart weight. Values were rounded off to the nearest decimal point.", "key": {"[1]": {"conditions": "ZDF rats, TZD 0.00006% diet admixture, IP^7 0.06 ug/min subcutaneous infusion, seven weeks"}, "[2]": {"conditions": "ZDF rats, measured at the end of the seven-week study"}}}
{"substance": "4-imidazopropionyl-GLP-1 (7–37)OH [IP^7]", "values": [{"measurement": "Glucose (plasma glucose level)", "setting": "ZDF rats, fed state, TZD 0.00006% diet admixture, IP^7 0.06 ug/min subcutaneous infusion, seven weeks", "result": "367.5 ± 58.0", "unit": "mg/dL"}, {"measurement": "Food Int (daily food intake)", "setting": "[1]", "result": "30.4 ± 1.2", "unit": "g/day"}, {"measurement": "Insulin (plasma insulin level)", "setting": "[1]", "result": "13.0 ± 2.9", "unit": "ng/mL"}, {"measurement": "Weight (final rat weight)", "setting": "[1]", "result": "414.7 ± 7.9", "unit": "g"}, {"measurement": "Hbalc (glycated hemoglobin A1c)", "setting": "[2]", "result": "9.5 ± 1.0", "unit": "%"}, {"measurement": "Heart wt", "setting": "[2]", "result": "1.2 ± 0.03", "unit": "g"}, {"measurement": "Fed state plasma-glucose level as % of control levels", "setting": "diabetic ZDF rats, 42-day treatment period", "result": "57.5 % of control levels"}, {"measurement": "Course of plasma glucose levels over the 42-day treatment period", "setting": "diabetic rats, 42-day treatment", "result": "increased"}]}
